Measured values taken from US20170035706A1, “DETRUSOR HYPERACTIVITY WITH IMPAIRED CONTRACTILITY AMELIORATING AGENT” (TAIHO PHARMACEUTICAL CO., LTD., priority 2015, published 2017).
“And” between values parts separate entries of the source, which are not always exact repeats. Equal values may be shown once.

Test system: rat dysuria model that presents DHIC
Experiment: Cystometry and nomogram analysis in rat dysuria model that presents DHIC (partial ligation of urethra)
Format: in vivo
Experimental: The models were produced by partial ligation ((1)1.57 mm) of urethra in rats (9 weeks, female, Sprague-Dawley). Six weeks after preparation of the model, the rats were released the ligation. The next day, the intravesical pressure and the voided volume were measured under awake condition. And the detrusor contractility during voiding phase was evaluated by nomogram analysis using Qmax and Pdet. Additionally, the detrusor overactivity, as index of overactive bladder, and the increase of residual urine volume, as index of underactive bladder, were evaluated.
The dysuria models in this example were prepared in the same manner as in Test Example 1. The test drugs (vehicle: 6% Gelucire, Compound 1 of the present invention 10 mg/kg) were orally administered to each group after two weeks from the preparation of the models twice a day for four weeks. On the day of the final administration, the rats were released the ligation of urethra. The next day, the intravesical pressure and the voided volume were measured using cystometry under conscious condition. The detrusor overactivity, as an index of overactive bladder, and the increase of residual urine volume, as an index of underactive bladder, were evaluated. Additionally, the detrusor contractility during voiding phase was evaluated by nomogram analysis using Qmax and Pdet.
In the same manner as Test Example 1, the rats were released the ligation of urethra at six weeks after the preparation of the model. The next day, the intravesical pressure and the voided volume were measured using cystometry under conscious condition. The detrusor overactivity, as an index of overactive bladder, and the increase of residual urine volume, as an index of underactive bladder, were evaluated. Additionally, the detrusor contractility during voiding phase was evaluated by nomogram analysis using Qmax and Pdet. Tamsulosin (3 μg/kg) was administered intravenously to the dysuria rat at the evaluation (six weeks after preparation of the model).

CC1=C(CCCCCCCCCCCCCCCO)C(C)(C)CCC1=O [Compound 1 of the present invention, 3-(15-hydroxypentadecyl)-2,4,4-trimethyl-2-cyclohexene-1-one]
Detrusor contractility during voiding phase: distance from the origin in nomogram analysis (Qmax, Pdet) (10 mg/kg orally twice a day for four weeks, control 4.24±0.53, sham 24.75±3.14): 10.5±2.3
Residual urine volume (female Sprague-Dawley rats, 10 mg/kg orally twice a day for four weeks, conscious cystometry, control 0.57 ± 0.06, sham 0.10 ± 0.03, 10 mg/kg): 0.28 ± 0.13 mL
Detrusor overactivity (female Sprague-Dawley rats, 10 mg/kg orally twice a day for four weeks, conscious cystometry, control 1.73 ± 0.10, sham 0.19 ± 0.09, 10 mg/kg): 0.63±0.14 times/min and 0.63 ± 0.10 times/min

CCOc1ccccc1OCCN[C@H](C)Cc1ccc(OC)c(S(N)(=O)=O)c1 [Tamsulosin, reference compound]
Detrusor contractility in nomogram analysis (3 μg/kg intravenously at the evaluation, vs control (FIG. 2)): no effect
Detrusor overactivity (female Sprague-Dawley rats, 3 μg/kg intravenously at the evaluation, conscious cystometry, control 1.73 ± 0.10): 0.68±0.33 times/min
